Measurements published in US20230092890A1, “1, 3, 4-Oxadiazole derivative compounds as histone deacetylase 6 inhibitor, and the pharmaceutical composition comprising the same” (Chong Kun Dang Pharmaceutical Corp., priority 2019, published 2023).

Columns and labels:
[1] = biological target: T1, HDAC6 human recombinant (Homo sapiens, UniProt Q9UBN7); experiment: HDAC enzyme activity inhibition (in vitro), HDAC6 assay; assay type: biochemical; conditions: samples at 0.1, 1, 10, 100 and 1000 nM; 37° C. 60 minutes; fluorescence Ex 390, Em 460; read-out: HDAC6 IC50
T1 construct: purchased Calbiochem 382180
T1 sequence (Q9UBN7 1-1215): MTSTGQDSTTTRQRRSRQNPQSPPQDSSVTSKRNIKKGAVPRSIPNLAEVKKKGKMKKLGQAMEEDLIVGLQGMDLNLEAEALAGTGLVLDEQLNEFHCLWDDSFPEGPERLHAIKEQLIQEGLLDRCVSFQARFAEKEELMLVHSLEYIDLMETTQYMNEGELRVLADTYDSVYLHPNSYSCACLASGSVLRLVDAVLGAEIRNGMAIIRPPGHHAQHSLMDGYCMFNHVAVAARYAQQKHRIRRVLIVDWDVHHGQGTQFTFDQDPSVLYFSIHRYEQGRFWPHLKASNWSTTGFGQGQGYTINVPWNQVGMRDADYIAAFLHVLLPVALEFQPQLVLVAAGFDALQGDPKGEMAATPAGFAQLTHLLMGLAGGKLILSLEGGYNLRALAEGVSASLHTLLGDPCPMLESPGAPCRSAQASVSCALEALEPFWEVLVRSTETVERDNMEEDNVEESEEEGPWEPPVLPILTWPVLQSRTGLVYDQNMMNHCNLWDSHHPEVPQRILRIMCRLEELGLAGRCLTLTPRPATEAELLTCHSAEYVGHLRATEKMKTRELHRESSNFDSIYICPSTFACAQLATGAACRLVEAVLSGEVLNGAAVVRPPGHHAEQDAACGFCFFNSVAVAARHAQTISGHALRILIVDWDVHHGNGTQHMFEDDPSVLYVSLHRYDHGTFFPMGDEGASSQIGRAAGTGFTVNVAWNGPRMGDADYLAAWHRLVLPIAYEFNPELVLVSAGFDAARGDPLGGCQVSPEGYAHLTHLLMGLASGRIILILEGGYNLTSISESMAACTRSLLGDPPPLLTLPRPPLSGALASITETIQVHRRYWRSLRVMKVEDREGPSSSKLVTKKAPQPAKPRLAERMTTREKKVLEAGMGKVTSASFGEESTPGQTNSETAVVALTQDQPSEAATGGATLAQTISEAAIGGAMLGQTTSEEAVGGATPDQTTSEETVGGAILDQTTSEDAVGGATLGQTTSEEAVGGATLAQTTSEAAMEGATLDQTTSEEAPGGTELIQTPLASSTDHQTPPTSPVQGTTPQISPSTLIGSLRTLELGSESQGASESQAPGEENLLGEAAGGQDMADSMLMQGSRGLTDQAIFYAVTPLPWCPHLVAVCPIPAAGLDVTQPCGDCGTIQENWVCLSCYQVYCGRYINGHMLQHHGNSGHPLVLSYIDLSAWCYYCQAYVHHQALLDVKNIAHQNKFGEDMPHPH
How it was run: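 HDAC6 human recombinant enzyme with fluorimetric substrate; […]. Reaction 60 min at 37° C, then developer 30 min at 37° C; fluorescence read at Ex 390/Em 460.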

[2] = biological target: T2, HDAC1 (Homo sapiens, UniProt Q13547); experiment: HDAC enzyme activity inhibition (in vitro), HDAC1 Fluorimetric Drug Discovery Assay Kit; assay type: biochemical; conditions: samples at 100, 1000 and 10000 nM; 37° C. 60 minutes; fluorescence Ex 390, Em 460; read-out: HDAC1 IC50
T2 construct: purchased Enzolifesciences BML-AK511
How it was run: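 Compounds at 100, 1000, 10000 nM (HDAC1) or 0.1, 1, 10, 100, 1000 nM (HDAC6); 37° C, 60 min; developer, 37° C, 30 min; fluorescence Ex 390/Em 460.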

T2 sequence (Q13547 whole entry): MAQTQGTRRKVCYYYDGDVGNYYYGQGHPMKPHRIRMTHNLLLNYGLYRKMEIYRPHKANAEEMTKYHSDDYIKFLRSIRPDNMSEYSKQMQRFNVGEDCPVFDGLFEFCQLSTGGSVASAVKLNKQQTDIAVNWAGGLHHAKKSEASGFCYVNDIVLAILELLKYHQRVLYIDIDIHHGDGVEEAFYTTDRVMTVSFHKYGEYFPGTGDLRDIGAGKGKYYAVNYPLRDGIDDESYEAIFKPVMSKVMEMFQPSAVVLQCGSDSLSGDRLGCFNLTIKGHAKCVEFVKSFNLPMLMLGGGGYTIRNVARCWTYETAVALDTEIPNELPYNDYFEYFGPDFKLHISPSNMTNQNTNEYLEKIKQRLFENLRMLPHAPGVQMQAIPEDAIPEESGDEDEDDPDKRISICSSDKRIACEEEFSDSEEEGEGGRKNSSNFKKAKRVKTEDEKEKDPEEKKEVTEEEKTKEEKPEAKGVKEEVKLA

Row | Structure (SMILES) | IC50 [1] | IC50 [2]
1 | Cn1c(=O)n(Cc2ccc(-c3nnc(C(F)F)o3)cn2)c2cc(F)c(N3CCN(Cc4cccc5[nH]ccc45)CC3)cc21 [Compound 284, 5-(4-((1H-indole-4-yl)methyl)piperazine-1-yl)-1-((5-(5-(difluoromethyl)-1,3,4-oxadiazole-2-yl)pyridine-2-yl)methyl)-6-fluoro-3-methyl-1,3-dihydro-2H-benzo[d]imidazole-2-one] | 59 nM | > 10000 nM
2 | Cn1c(=O)n(Cc2ccc(-c3nnc(C(F)F)o3)cn2)c2cc(F)c(N3CCN(Cc4cn[nH]c4)CC3)cc21 [Compound 285, 5-(4-((1H-pyrazole-4-yl)methyl)piperazine-1-yl)-1-((5-(5-(difluoromethyl)-1,3,4-oxadiazole-2-yl)pyridine-2-yl)methyl)-6-fluoro-3-methyl-1,3-dihydro-2H-benzo[d]imidazole-2-one] | 33 nM | > 10000 nM
3 | O=c1n(Cc2ccc(-c3nnc(C(F)F)o3)cn2)c2cc(F)c(-c3cccc4[nH]ccc34)cc2n1[C@@H]1CCN(C2COC2)C1 [Compound 288, (R)-1-((5-(5-(difluoromethyl)-1,3,4-oxadiazole-2-yl)pyridine-2-yl)methyl)-6-fluoro-5-(1H-indole-4-yl)-3-(1-(oxetan-3-yl)pyrrolidine-3-yl)-1,3-dihydro-2H-benzo[d]imidazole-2-one] | 10 nM | > 10000 nM
4 | O=c1n(Cc2ccc(-c3nnc(C(F)F)o3)cn2)c2cc(F)c(-c3cccc4[nH]ccc34)cc2n1CC1CCN(C2COC2)CC1 [Compound 289, 1-((5-(5-(difluoromethyl)-1,3,4-oxadiazole-2-yl)pyridine-2-yl)methyl)-6-fluoro-5-(1H-indole-4-yl)-3-((1-(oxetan-3-yl)piperidine-4-yl)methyl)-1,3-dihydro-2H-benzo[d]imidazole-2-one] | 4 nM | > 10000 nM

Next, values leading:

Row | IC50 [1] | IC50 [2] | Structure (SMILES)
5 | 18 nM | > 10000 nM | CCN1CCC(n2c(=O)n(Cc3ccc(-c4nnc(C(F)F)o4)cn3)c3ccc(-c4cccnc4)cc32)CC1 [Compound 281, 1-((5-(5-(difluoromethyl)-1,3,4-oxadiazole-2-yl)pyridine-2-yl)methyl)-3-(1-ethylpiperidine-4-yl)-5-(pyridine-3-yl)-1,3-dihydro-2H-benzo[d]imidazole-2-one]
6 | 16 nM | > 10000 nM | O=c1n(Cc2ccc(-c3nnc(C(F)F)o3)cn2)c2ccc(-c3ccncc3)cc2n1C1CCN(C2COC2)CC1 [Compound 282, 1-((5-(5-(difluoromethyl)-1,3,4-oxadiazole-2-yl)pyridine-2-yl)methyl)-3-(1-(oxetan-3-yl)piperidine-4-yl)-5-(pyridine-4-yl)-1,3-dihydro-2H-benzo[d]imidazole-2-one]
7 | 23 nM | > 10000 nM | CCN1CCC(n2c(=O)n(Cc3ccc(-c4nnc(C(F)F)o4)cn3)c3ccc(-c4ccncc4)cc32)CC1 [Compound 283, 1-((5-(5-(difluoromethyl)-1,3,4-oxadiazole-2-yl)pyridine-2-yl)methyl)-3-(1-ethylpiperidine-4-yl)-5-(pyridine-4-yl)-1,3-dihydro-2H-benzo[d]imidazole-2-one]
8 | 9 nM | > 10000 nM | O=c1n(Cc2ccc(-c3nnc(C(F)F)o3)cn2)c2cc(F)c(-c3cccnc3)cc2n1[C@@H]1CCN(C2COC2)C1 [Compound 286, (R)-1-((5-(5-(difluoromethyl)-1,3,4-oxadiazole-2-yl)pyridine-2-yl)methyl)-6-fluoro-3-(1-(oxetan-3-yl)pyrrolidine-3-yl)-5-(pyridine-3-yl)-1,3-dihydro-2H-benzo[d]imidazole-2-one]
9 | 14 nM | > 10000 nM | O=c1n(Cc2ccc(-c3nnc(C(F)F)o3)cn2)c2cc(F)c(-c3ccncc3)cc2n1[C@@H]1CCN(C2COC2)C1 [Compound 287, (R)-1-((5-(5-(difluoromethyl)-1,3,4-oxadiazole-2-yl)pyridine-2-yl)methyl)-6-fluoro-3-(1-(oxetan-3-yl)pyrrolidine-3-yl)-5-(pyridine-4-yl)-1,3-dihydro-2H-benzo[d]imidazole-2-one]
